# In the supplement of paper PMC10307832:
# Assays:
# Test in all cases: relative viability (nuclei count vs DMSO), 5 days (fraction); higher = more cells survive
# BEN = test system: BEN
# Outline: (§1)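 The day after seeding in 1536-well plates, lung cancer cell lines were treated by pin tool with a single drug, or with a fixed anchor-drug dose together with five library-drug doses (not always all listed) in √10 steps. After 5 days, a combined fix-and-stain solution (final 0.05% Triton X-100, 1% formaldehyde, 1 ug/ml Hoechst) was added. Nuclei counted on 4× images gave relative viability as treated counts over vehicle counts, reported as the median of duplicate plates.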
# HCC-15 = test system: HCC-15
# Outline: as §1
# HCC-78 = test system: HCC-78
# Outline: as §1
# LC-2-ad = test system: LC-2-ad
# Outline: as §1
# LCLC-97TM1 = test system: LCLC-97TM1
# Outline: as §1
# LK-2 = test system: LK-2
# Outline: as §1
# LU99A = test system: LU99A
# Outline: as §1
# LXF-289 = test system: LXF-289
# Outline: as §1
# NCI-H1651 = test system: NCI-H1651
# Outline: as §1
# NCI-H1666 = test system: NCI-H1666
# Outline: as §1
# NCI-H1944 = test system: NCI-H1944
# Outline: as §1
# NCI-H2087 = test system: NCI-H2087
# Outline: as §1
# NCI-H322M = test system: NCI-H322M
# Outline: as §1
# NCI-H358 = test system: NCI-H358
# Outline: as §1
# NCI-H596 = test system: NCI-H596
# Outline: as §1
# NCI-H650 = test system: NCI-H650
# Outline: as §1
# NCI-H661 = test system: NCI-H661
# Outline: as §1
# NCI-H838 = test system: NCI-H838
# Outline: as §1
# PC-3 [JPC-3] = test system: PC-3 [JPC-3]
# Outline: as §1
# SK-MES-1 = test system: SK-MES-1
# Outline: as §1
# UMC-11 = test system: UMC-11
# Outline: as §1
structure (smiles),measurement,setting,value
C=C1C(=O)O[C@@H](CCCCCCCC)[C@@H]1C(=O)O [C-75] + C[C@]1(O)C[C@@H](c2nc(-c3ccc4ccc(-c5ccccc5)nc4c3)c3c(N)nccn32)C1 [Linsitinib] (partner 1 µM),relative viability,BEN; first compound 0.08 µM,0.847
same,relative viability,BEN; first compound 0.253 µM,0.982
same,relative viability,BEN; first compound 0.8 µM,0.937
same,relative viability,BEN; first compound 2.53 µM,0.873
same,relative viability,BEN; first compound 8 µM,0.854
same,relative viability,HCC-15; first compound 0.08 µM,0.926
same,relative viability,HCC-15; first compound 0.253 µM,0.978
same,relative viability,HCC-15; first compound 0.8 µM,0.924
same,relative viability,HCC-15; first compound 2.53 µM,0.847
same,relative viability,HCC-15; first compound 8 µM,0.902
same,relative viability,HCC-78; first compound 0.08 µM,0.642
same,relative viability,HCC-78; first compound 0.253 µM,0.443
same,relative viability,HCC-78; first compound 0.8 µM,0.493
same,relative viability,HCC-78; first compound 2.53 µM,0.437
same,relative viability,HCC-78; first compound 8 µM,0.522
same,relative viability,LC-2-ad; first compound 0.08 µM,0.869
same,relative viability,LC-2-ad; first compound 0.253 µM,0.865
same,relative viability,LC-2-ad; first compound 0.8 µM,0.798
same,relative viability,LC-2-ad; first compound 8 µM,0.855
same,relative viability,LCLC-97TM1; first compound 0.08 µM,0.2
same,relative viability,LCLC-97TM1; first compound 0.253 µM,0.309
same,relative viability,LCLC-97TM1; first compound 0.8 µM,0.177
same,relative viability,LCLC-97TM1; first compound 2.53 µM,0.105
same,relative viability,LCLC-97TM1; first compound 8 µM,0.18
same,relative viability,LK-2; first compound 0.08 µM,0.416
same,relative viability,LK-2; first compound 0.253 µM,0.785
same,relative viability,LK-2; first compound 0.8 µM,0.607
same,relative viability,LK-2; first compound 2.53 µM,0.514
same,relative viability,LK-2; first compound 8 µM,0.369
same,relative viability,LU99A; first compound 0.08 µM,0.571
same,relative viability,LU99A; first compound 0.253 µM,0.598
same,relative viability,LU99A; first compound 0.8 µM,0.528
same,relative viability,LU99A; first compound 2.53 µM,0.412
same,relative viability,LU99A; first compound 8 µM,0.464
same,relative viability,LXF-289; first compound 0.08 µM,0.925
same,relative viability,LXF-289; first compound 0.253 µM,0.979
same,relative viability,LXF-289; first compound 0.8 µM,0.953
same,relative viability,LXF-289; first compound 2.53 µM,0.94
same,relative viability,LXF-289; first compound 8 µM,0.966
same,relative viability,NCI-H1651; first compound 0.08 µM,1.06
same,relative viability,NCI-H1651; first compound 0.253 µM,1.07
same,relative viability,NCI-H1651; first compound 0.8 µM,1.08
same,relative viability,NCI-H1651; first compound 2.53 µM,0.975
same,relative viability,NCI-H1651; first compound 8 µM,0.964
same,relative viability,NCI-H1666; first compound 0.08 µM,0.79
same,relative viability,NCI-H1666; first compound 0.253 µM,1.01
same,relative viability,NCI-H1666; first compound 0.8 µM,0.816
same,relative viability,NCI-H1666; first compound 2.53 µM,0.858
same,relative viability,NCI-H1666; first compound 8 µM,0.644
same,relative viability,NCI-H1944; first compound 0.08 µM,1.13
same,relative viability,NCI-H1944; first compound 0.253 µM,0.961
same,relative viability,NCI-H1944; first compound 0.8 µM,1.26
same,relative viability,NCI-H1944; first compound 8 µM,1.19
same,relative viability,NCI-H2087; first compound 0.08 µM,1.24
same,relative viability,NCI-H2087; first compound 0.253 µM,0.898
same,relative viability,NCI-H2087; first compound 0.8 µM,0.975
same,relative viability,NCI-H2087; first compound 2.53 µM,0.867
same,relative viability,NCI-H2087; first compound 8 µM,1
same,relative viability,NCI-H322M; first compound 0.08 µM,0.887
same,relative viability,NCI-H322M; first compound 0.253 µM,1.05
same,relative viability,NCI-H322M; first compound 0.8 µM,0.999
same,relative viability,NCI-H322M; first compound 2.53 µM,0.816
same,relative viability,NCI-H322M; first compound 8 µM,1.08
same,relative viability,NCI-H358; first compound 0.08 µM,0.734
same,relative viability,NCI-H358; first compound 0.253 µM,0.823
same,relative viability,NCI-H358; first compound 0.8 µM,0.7
same,relative viability,NCI-H358; first compound 2.53 µM,0.602
same,relative viability,NCI-H358; first compound 8 µM,0.737
same,relative viability,NCI-H596; first compound 0.08 µM,1.01
same,relative viability,NCI-H596; first compound 0.253 µM,1.09
same,relative viability,NCI-H596; first compound 0.8 µM,1.01
same,relative viability,NCI-H596; first compound 2.53 µM,0.911
same,relative viability,NCI-H596; first compound 8 µM,1.03
same,relative viability,NCI-H650; first compound 0.08 µM,0.922
same,relative viability,NCI-H650; first compound 0.253 µM,0.801
same,relative viability,NCI-H650; first compound 0.8 µM,0.608
same,relative viability,NCI-H650; first compound 2.53 µM,0.718
same,relative viability,NCI-H650; first compound 8 µM,0.766
same,relative viability,NCI-H661; first compound 0.08 µM,0.504
same,relative viability,NCI-H661; first compound 0.253 µM,0.571
same,relative viability,NCI-H661; first compound 0.8 µM,0.461
same,relative viability,NCI-H661; first compound 2.53 µM,0.491
same,relative viability,NCI-H661; first compound 8 µM,0.457
same,relative viability,NCI-H838; first compound 0.08 µM,0.935
same,relative viability,NCI-H838; first compound 0.253 µM,0.706
same,relative viability,NCI-H838; first compound 0.8 µM,1.01
same,relative viability,NCI-H838; first compound 2.53 µM,0.943
same,relative viability,NCI-H838; first compound 8 µM,0.836
same,relative viability,PC-3 [JPC-3]; first compound 0.08 µM,0.939
same,relative viability,PC-3 [JPC-3]; first compound 0.253 µM,0.933
same,relative viability,PC-3 [JPC-3]; first compound 0.8 µM,0.951
same,relative viability,PC-3 [JPC-3]; first compound 2.53 µM,1.02
same,relative viability,PC-3 [JPC-3]; first compound 8 µM,1.09
same,relative viability,SK-MES-1; first compound 0.08 µM,1.1
same,relative viability,SK-MES-1; first compound 0.253 µM,0.935
same,relative viability,SK-MES-1; first compound 0.8 µM,1.02
same,relative viability,SK-MES-1; first compound 8 µM,1.05
same,relative viability,UMC-11; first compound 0.08 µM,0.91
same,relative viability,UMC-11; first compound 0.253 µM,1.09
same,relative viability,UMC-11; first compound 0.8 µM,1.01
same,relative viability,UMC-11; first compound 2.53 µM,0.821
same,relative viability,UMC-11; first compound 8 µM,0.891
